US6399629B1, “Efflux pump inhibitors” (priority 1998, dated 2002)
Counter-ions that a name gives are not always drawn.

Tests used:
[1] = system: Pseudomonas aeruginosa PAM1001; experiment: microbe, parasite or virus in culture; format: cell-based; conditions: for inhibition at 20 µg/mL / inhibition at 40 µg/mL / inhibition at 2.5 µg/mL / inhibition at 5 µg/mL / inhibition at 10 µg/mL: Pseudomonas aeruginosa, PAM1001, read-out: Inhibition (%) of growth of P. aeruginosa PAM1001; for Inhibition (%) of growth of P. aeruginosa PAM1001: Levofloxacin 0.25 μg/mL
Experimental: For compounds labeled with the prefix ‘D’, potentiation is measured by inhibition of growth of Pseudomonas aeruginosa PAM1001 at varying concentrations of efflux pump inhibitors (EPIs) in the presence of levofloxacin (0.25 microg/mL). Bacteria are grown in Mueller Hinton Broth (MHB, Difco) with an initial inoculum of 1×10^6 CFU/mL. Kinetics of bacterial growth is monitored, during 18 h of incubation at 37° C., by measurement of the culture absorbance at 650 nm using a 96-well plate spectrophotometer (SpectraMax, Molecular Devices). The inhibitory effect of EPIs is expressed as a percentage of growth inhibition compared to a control bacterial culture grown in the presence of 0.25 microg/mL levofloxacin but without EPIs.

[2] = system: Pseudomonas aeruginosa PAM1001; experiment: checkerboard assay (broth microdilution): levofloxacin MIC in presence of efflux pump inhibitor; format: cell-based
How it was run: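 Checkerboard broth microdilution in Mueller Hinton Broth against P. aeruginosa PAM1001 (5×10^5 CFU/mL, early-log inoculum), levofloxacin and efflux pump inhibitor (up to 40 μg/mL) diluted along crossing axes. Plates incubated 20 h at 35° C; growth read at 650 nm and visually. Potentiation scored as reduced levofloxacin MIC.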

| Compound | inhibition at 20 µg/mL [1] | inhibition at 40 µg/mL [1] | inhibition at 2.5 µg/mL [1] | inhibition at 5 µg/mL [1] | inhibition at 10 µg/mL [1] | Inhibition (%) of growth of P. aeruginosa PAM1001 ([1]; Concentration of Compound 2.5 μg/mL) | Inhibition (%) of growth of P. aeruginosa PAM1001 ([1]; Concentration of Compound 5 μg/mL) | Inhibition (%) of growth of P. aeruginosa PAM1001 ([1]; Concentration of Compound 10 μg/mL) | Inhibition (%) of growth of P. aeruginosa PAM1001 ([1]; Concentration of Compound 20 μg/mL) | Inhibition (%) of growth of P. aeruginosa PAM1001 ([1]; Concentration of Compound 40 μg/mL) | Levofloxacin MIC Against P. aerugiuosa PAM1001 in Presence of Efflux Pump Inhibitor (EPI), Minimum Inhibitory Concentration ([2]; EPI Conc. 0 μg/mL) | Levofloxacin MIC Against P. aerugiuosa PAM1001 in Presence of Efflux Pump Inhibitor (EPI), Minimum Inhibitory Concentration ([2]; EPI Conc. 0.625 μg/mL) | Levofloxacin MIC Against P. aerugiuosa PAM1001 in Presence of Efflux Pump Inhibitor (EPI), Minimum Inhibitory Concentration ([2]; EPI Conc. 1.25 μg/mL) | Levofloxacin MIC Against P. aerugiuosa PAM1001 in Presence of Efflux Pump Inhibitor (EPI), Minimum Inhibitory Concentration ([2]; EPI Conc. 2.5 μg/mL) | Levofloxacin MIC Against P. aerugiuosa PAM1001 in Presence of Efflux Pump Inhibitor (EPI), Minimum Inhibitory Concentration ([2]; EPI Conc. 5 μg/ mL) | Levofloxacin MIC Against P. aerugiuosa PAM1001 in Presence of Efflux Pump Inhibitor (EPI), Minimum Inhibitory Concentration ([2]; EPI Conc. 10 μg/mL) | Levofloxacin MIC Against P. aerugiuosa PAM1001 in Presence of Efflux Pump Inhibitor (EPI), Minimum Inhibitory Concentration ([2]; EPI Conc. 20 μg/mL) | Levofloxacin MIC Against P. aerugiuosa PAM1001 in Presence of Efflux Pump Inhibitor (EPI), Minimum Inhibitory Concentration ([2]; EPI Conc. 40 μg/mL) |
| --- | --- | --- | --- | --- | --- | --- | --- | --- | --- | --- | --- | --- | --- | --- | --- | --- | --- | --- |
| N[C@H]1CN[C@H](C(=O)N2C[C@H](NC(=O)[C@H](O)CCc3ccccc3)C[C@H]2C(=O)Nc2cnc3ccccc3c2)C1 (mixture of isomers) [Compound D101, trans-4-Amino-L-Prolyl-trans-4-((R)-2-Hydroxy-4-Phenylbutyrylamino)-L-Proline 3-Quinolylamide Trihydrochloride] | 20% | 94% | – | – | – | – | – | – | – | – | – | – | – | – | – | – | – | – |
| N[C@H]1CCN[C@H](C(=O)N2C[C@H](NC(=O)[C@H](O)CCc3ccccc3)C[C@H]2C(=O)Nc2cnc3ccccc3c2)C1 (mixture of isomers) [Compound D112, trans-4-Amino-L-Pipecolinoyl-trans-4-((R)-2-Hydroxy-4-Phenylbutyrylamino)-L-Proline 3-Quinolylamide Trihydrochloride] | 58% | 101% | 20% | 20% | 17% | – | – | – | – | – | – | – | – | – | – | – | – | – |
| Cl.Cl.NCC(=O)N[C@H]1CN[C@H](C(=O)NCc2ccc(-c3ccccc3)cc2)C1 (relative stereo) [Compound D316, trans-4-Glycylmino-L-Proline 4-Phenylbenzylamide Dihydrochloride] | – | – | – | – | – | 20% | 20% | 21% | 82% | 100% | – | – | – | – | – | – | – | – |
| NCC(=O)N[C@H]1CN[C@H](COc2cccc(-c3ccccc3)c2)C1 [Compound D502, (2S,4R)-4-Glycylamino-2-(3-Biphenyloxy)methyl-pyrrolidine Dihydrochloride] | 100% | 100% | 13% | 88% | 99% | – | – | – | – | – | – | – | – | – | – | – | – | – |
| NCC(=O)N[C@H]1CN[C@H](C(=O)NCc2nc3cc(Cc4ccccc4)ccc3[nH]2)C1 [Compound M79, (2S,4R)-4-(2-Aminoacetamido)-N-[(5-benzyl-2-benzimidazolyl)methyl]-2-pyrrolidinexarboxamide] | – | – | – | – | – | – | – | – | – | – | 4 µg/mL | 4 µg/mL | 4 µg/mL | 4 µg/mL | 4 µg/mL | 2 µg/mL | 1 µg/mL | 0.125 µg/mL |
| NCC(=O)N[C@H]1CN[C@H](C(=O)NCc2nc3cc(C(O)c4ccccc4)ccc3[nH]2)C1 (stereo partly drawn) [Compound M82, (2S,4R)-4-(2-Aminoacetamido)-N-[(5-(1-hydroxy-1-phenyl)methyl-2-benzimidazolyl)methyl]-2-pyrrolidinecarboxaniide] | – | – | – | – | – | – | – | – | – | – | 4 µg/mL | 4 µg/mL | 4 µg/mL | 2 µg/mL | 1 µg/mL | 0.25 µg/mL | 0.125 µg/mL | 0.06 µg/mL |
| CC(N)C(=O)N[C@H]1CN[C@H](C(=O)N[C@H](CCc2ccccc2)C(=O)Nc2cnc3ccccc3c2)C1 (stereo partly drawn) [Compound M4, (2S,4R)-4-(2-Aminopropionamido]-N-[(1R)-3-pheyl-1-(3-quinolylcarbamoyl)propyl]-2-pyrrolidinecarboxamide] | – | – | – | – | – | – | – | – | – | – | 4 µg/mL | 4 µg/mL | 4 µg/mL | 4 µg/mL | 2 µg/mL | 2 µg/mL | 1 µg/mL | 0.015 µg/mL |
| CN(C(=O)[C@@H]1C[C@@H](NC(=O)CN)CN1)[C@H](CCc1ccccc1)C(=O)Nc1cnc2ccccc2c1 [Compound M15, (2S,4R)-4-(2-Aminoacetamido)-N-methyl-N-[(1R)-3-phenyl-1-(3-quinolylcarbamoyl)propyl]-2-pyrrolidiecarboxamide] | – | – | – | – | – | – | – | – | – | – | 4 µg/mL | 4 µg/mL | 4 µg/mL | 4 µg/mL | 4 µg/mL | 1 µg/mL | 0.06 µg/mL | 0.015 µg/mL |
| (2S,4R)-4-(2-Aminoacetamido)-N-[4-benzyl-2-benzimidazolyl)ethyl]-2-pyrrolidinecarboxamide [Compound M99] | – | – | – | – | – | – | – | – | – | – | 4 µg/mL | 4 µg/mL | 4 µg/mL | 4 µg/mL | 4 µg/mL | 4 µg/mL | 0.06 µg/mL | 0.03 µg/mL |
| NCC(=O)N[C@H]1CN[C@H](C(=O)N[C@H](CCc2ccccc2)COc2ccc3ccccc3n2)C1 [Compound M54, (2S,rR)-4-(2-Aminoacetamido)-N-[(1R)-3-phenyl-1-[(2-quinolyloxy)methyl]propyl]-2-pyrrolidinecarboxamide] | – | – | – | – | – | – | – | – | – | – | 4 µg/mL | 4 µg/mL | 4 µg/mL | 4 µg/mL | 4 µg/mL | 0.125 µg/mL | 0.06 µg/mL | 0.03 µg/mL |
